The values that follow come from article PMC3685428 (ACS medicinal chemistry letters, 2012).

In one data set the test system is P. falciparum 3D7 strain. Put plainly: Proliferation of erythrocyte-stage P. falciparum, 3D7 strain. Format: cell-based. The settings on record: Plasmodium falciparum; for IC50: 3D7, Erythrocyte, read-out: IC50 against P. falciparum proliferation, 3D7 strain.
The test system of the next data set is P. falciparum Dd2 strain. Put plainly: Proliferation of erythrocyte-stage P. falciparum, Dd2 strain. Format: cell-based. Conditions: Plasmodium falciparum; for IC50: DD2, Erythrocyte, read-out: IC50 against P. falciparum proliferation, Dd2 strain.
In data set [1] the target is T1, recombinant P. falciparum DXR (PfDXR) (Plasmodium falciparum, UniProt O96693).
T1 sequence (O96693 73-488): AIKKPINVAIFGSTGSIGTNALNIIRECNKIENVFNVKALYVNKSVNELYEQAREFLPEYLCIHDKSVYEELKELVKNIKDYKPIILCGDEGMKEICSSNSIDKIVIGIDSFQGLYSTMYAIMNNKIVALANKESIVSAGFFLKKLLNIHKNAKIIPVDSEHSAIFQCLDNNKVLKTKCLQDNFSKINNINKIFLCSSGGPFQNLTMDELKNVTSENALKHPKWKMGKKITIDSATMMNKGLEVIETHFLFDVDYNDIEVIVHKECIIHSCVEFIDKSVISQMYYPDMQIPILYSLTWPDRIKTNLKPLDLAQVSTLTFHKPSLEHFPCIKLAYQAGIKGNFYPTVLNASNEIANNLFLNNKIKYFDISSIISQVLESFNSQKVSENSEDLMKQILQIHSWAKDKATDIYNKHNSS
Put plainly: Enzyme inhibition of recombinant P. falciparum DXR. Format: biochemical. The settings on record: relative to compound 7.

The conditions of data set [2]: background statement, cited from earlier work.
Another data set relates to P. falciparum malaria. Conditions: clinical trials, in combination with clindamycin ref 7, 8; cited from earlier work.

As to `O=CN(O)CCC(c1cccnc1)P(=O)(O)O` (centres unmarked) [4m], the values for the IC50 in the data set on P. falciparum 3D7 strain and in the data set on P. falciparum Dd2 strain were 340 nM and 180 nM, respectively.

As for `O=CN(O)CCC(c1ccncc1)P(=O)(O)O` (centres unmarked) [4p], the results for the IC50 in the data set on P. falciparum 3D7 strain and in the data set on P. falciparum Dd2 strain were 180 nM and 170 nM, respectively.

As a reminder, the EC50 is the concentration giving half of the maximal effect. Regarding `CC(=O)N(O)CCC(c1cccnc1)P(=O)(O)O` (centres unmarked) [5m], the IC50 amounted to 440 nM in the data set with P. falciparum 3D7 strain and 310 nM in the data set with P. falciparum Dd2 strain. The EC50 in the data set on P. falciparum Dd2 strain (DD2, read-out: EC50 against P. falciparum Dd2) stood at 630 nM.

`CC(=O)N(O)CCC(c1ccncc1)P(=O)(O)O` (centres unmarked) [5p]: the IC50 turned out to be 630 nM in the data set with P. falciparum 3D7 strain and 460 nM with P. falciparum Dd2 strain. Besides, the EC50 in the data set on P. falciparum 3D7 strain (3D7, read-out: EC50 against P. falciparum 3D7) was 310 nM. Besides, the “Fold more inhibitory potency than compound 7 against PfDXR” value in data set [1] is ~ 6 ×.

On to `CCN(CC)CCCC(C)Nc1ccnc2cc(Cl)ccc12` (centres unmarked) [CQ, chloroquine, reference compound], for which the IC50 with P. falciparum 3D7 strain worked out at 21 nM; in the data set on P. falciparum Dd2 strain, 120 nM.

Consider `O=CN(O)CCCP(=O)(O)O` [compound 1, Fosmidomycin], for which the IC50 in the data set on P. falciparum 3D7 strain was 1170 nM; in the data set on P. falciparum Dd2 strain, 440 nM. Besides, in data set [2], the Oral availability entry is “poor”. Further, the “Half life in plasma” value in data set [2] (plasma) was ~ 1 h. Further, the “Clinical efficacy against P. falciparum malaria” value in the data set on P. falciparum malaria was “effective against P. falciparum malaria”.

Take `CC(=O)N(O)CCC(c1ccccc1)P(=O)(O)O` (centres unmarked) [compound 7]: the IC50 in the data set on P. falciparum 3D7 strain was found to be 3500 nM; with P. falciparum Dd2 strain, 1700 nM.
